Test system: peritoneal derived inflammatory cells (PDICs)
Assay: CD86 on CD19+ cells in cultured peritoneal derived inflammatory cells (PDICs), wild type
Type: cell-based, mouse
Settings: for number of CD19+ CD86high lymphocytes: 24 h, p<0.001
Method: Peritoneal derived inflammatory cells (PDICs) were harvested from the peritoneal cavity of thioglycolate-stimulated wild-type and TIRAP−/− deficient mice. PDIC cultures contain an admixture of inflammatory cells, including CD19+ B cells (40). TIRAP deficient mice were a gift from Dr. Ruslan Medzhitov (Yale University, New Haven, CT). PDICs were harvested on day 4 after i.p. injection of 1 ml of thioglycolate medium (Millipore, Billerica, MA, USA). Mice were euthanized, and the peritoneal cavity was washed 3-4 times with 3 mLs of Dulbecco's modified medium containing 10% fetal calf serum. A 3 mL syringe with an 18-gauge needle was used to inject the peritoneal cavity and retrieve the medium containing PDICs. Harvested cells were centrifuged at 250 g for 5 minutes, re-suspended in 5 mL of media and then filtered through a 40 μm strainer. Cells were plated at ˜1.5 million cells/mL in 12 or 24 well plates. Primary splenic derived B lymphocytes were isolated with the MagniSort Mouse B cell Enrichment Kit (Invitrogen, Carlsbad, CA, USA) according to manufacturer's instruction and plated in 96 well plates at 1 million cells/ml. The purity of isolated B cells was checked by flow cytometry and was >85% in all reported experiments. Both PDICs and primary B lymphocytes were cultured in DMEM with 10% FCS, 1 mM sodium pyruvate, penicillin/streptomycin (GIBCO, 1×), 2 mM L-Glutamine, 10 mM Hepes and 55 μM 2-Mercaptoethanol.
We used LPS-EB ultrapure lipopolysaccharide (InvivoGen, San Diego, CA, USA) or necrotic cell extracts (NCEs) to stimulate the cell cultures. For stimulation with LPS, LPS was added at 100 ng/mL at the time of plating. NCEs were prepared from H9c2 cells, in a similar manner to the protocol described for mouse heart and mouse liver extracts (18). For stimulation, NCEs were added at a final concentration of 10 μg/mL at the time the cells were plated. LPS and NCE stimulation were performed in the presence and absence of Pirfenidone for 24 hours. […]

Compound: Cc1ccc(=O)n(-c2ccccc2)c1 [Pirfenidone, 5 methyl-1-phenyl-2-[H] pyridone]
- LPS induced expression of CD86 on B cells (B lymphocytes from the peritoneum, 24 hours, LPS + 0.5% pirfenidone): significantly reduced
- number of CD19+ CD86high lymphocytes (PDICs stimulated with LPS): significantly attenuated
- number of CD19+ CD86high lymphocytes (PDICs stimulated with cytosolic extracts from necrotic cells): significantly attenuated
